Source: ChEMBL document CHEMBL1137096, “Optimization and metabolic stabilization of a class of nonsteroidal glucocorticoid modulators” (Bioorg Med Chem Lett, 2004)

Experiment: in vivo
Conditions: rat

Cc1c(NS(C)(=O)=O)cccc1N(Cc1ccccc1)Cc1ccc(Oc2cccc(OCCCC(=O)NCCCC(=O)O)c2)cc1
bioavailability: 12%
